Results: patent US8658646B2, “Pyrrolopyrazine kinase inhibitors” (Hoffmann-LaRoche Inc., priority 2011, dated 2014)

Experiments:
[1] = target: T1, JAK3: Recombinant human kinase domain (Homo sapiens, UniProt P52333); assay: Determination of IC50 of Janus Kinase (JAK) inhibition, radioactive end-point 33P-ATP assay, JAK3; format: biochemical; settings: ATP 1.5 uM, peptide 50 uM, 20 minutes, read-out: JAK3-INHIB-DR/v1~NO ADDITIVE~Enzyme_Conc = 100
T1 construct: JAK3: Recombinant human kinase domain from Millipore (Cat #14-629) or prepared; purchased Millipore 14-629

[2] = target: T2, recombinant human SYK360-635 (Homo sapiens, UniProt P43405); assay: Determination of IC50 of Spleen Tyrosine Kinase (SYK) inhibition, 33P ATP filtration assay; format: biochemical; settings: SYK aa 360-635 0.5 nM; ATP 20 μM, peptide 5 μM, 0.1% BSA; read-out: SYK_ENZYME_FILTRATION/v1, BSA
T2 construct: made in house

T1 sequence (P52333 822-1111 limits assumed): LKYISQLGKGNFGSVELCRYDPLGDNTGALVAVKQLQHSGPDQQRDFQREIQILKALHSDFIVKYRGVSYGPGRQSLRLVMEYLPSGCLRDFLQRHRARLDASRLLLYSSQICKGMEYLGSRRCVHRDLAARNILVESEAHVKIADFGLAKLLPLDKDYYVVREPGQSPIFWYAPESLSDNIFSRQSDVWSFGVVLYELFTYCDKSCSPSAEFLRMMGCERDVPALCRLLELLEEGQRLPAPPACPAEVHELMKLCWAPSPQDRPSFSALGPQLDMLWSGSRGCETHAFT

Structure (SMILES)	IC50 [1] [nM]	IC50 [2] [nM]
Cn1nc(-c2cnc3[nH]cc(C(=O)N[C@@H]4CCC[C@@H](O)C4)c3n2)c2ccc(Cl)cc21 (relative stereo) [Example I-148, 2-(6-Chloro-1-methyl-1H-indazol-3-yl)-5H-pyrrolo[2,3-b]pyrazine-7-carboxylic acid (trans-3-hydroxy-cyclohexyl)-amide]	55.5	19.3
Cn1nc(-c2cnc3[nH]cc(C(=O)N[C@@H]4CCC[C@@H](C#N)C4)c3n2)c2ccc(Cl)cc21 (relative stereo) [Example I-156, 2-(6-Chloro-1-methyl-1H-indazol-3-yl)-5H-pyrrolo[2,3-b]pyrazine-7-carboxylic acid (trans-3-cyano-cyclohexyl)-amide]	5.47	85.1
Cn1nc(-c2cnc3[nH]cc(C(=O)N[C@@H]4CCC[C@H](C#N)C4)c3n2)c2ccc(Cl)cc21 (relative stereo) [Example I-167, 2-(6-Chloro-1-methyl-1H-indazol-3-yl)-5H-pyrrolo[2,3-b]pyrazine-7-carboxylic acid (cis-3-cyano-cyclohexyl)-amide]	197	75
C[C@@H](NC(=O)c1c[nH]c2ncc(-c3nn(C)c4cc(Cl)ccc34)nc12)c1ccccc1 [Example I-25, 2-(6-Chloro-1-methyl-1H-indazol-3-yl)-5H-pyrrolo[2,3-b]pyrazine-7-carboxylic acid ((R)-1-phenyl-ethyl)-amide]	19.2	54.2
Cc1ccc2c(-c3cnc4[nH]cc(C(=O)N[C@H](C)C(=O)N5CC(C#N)C5)c4n3)ncn2c1 [Example I-31, 2-(6-Methyl-imidazo[1,5-a]pyridin-1-yl)-5H-pyrrolo[2,3-b]pyrazine-7-carboxylic acid [(R)-2-(3-cyano-azetidin-1-yl)-1-methyl-2-oxo-ethyl]-amide]	0.335	53.1
Cn1nc(-c2cnc3[nH]cc(C(=O)N[C@@H]4CC[C@@H](C#N)C4)c3n2)c2ccc(Cl)cc21 [Example I-36, 2-(6-Chloro-1-methyl-1H-indazol-3-yl)-5H-pyrrolo[2,3-b]pyrazine-7-carboxylic acid ((1R,3R)-3-cyano-cyclopentyl)-amide]	19	27.2
Cn1nc(-c2cnc3[nH]cc(C(=O)NC4CCC(N)C4)c3n2)c2ccc(Cl)cc21 (stereo not drawn) [Example I-37, 2-(6-Chloro-1-methyl-1H-indazol-3-yl)-5H-pyrrolo[2,3-b]pyrazine-7-carboxylic acid (3-amino-cyclopentyl)-amide]	39.2	6.4
Cn1nc(-c2cnc3[nH]cc(C(=O)NC4CCC(NS(C)(=O)=O)C4)c3n2)c2ccc(Cl)cc21 (stereo not drawn) [Example I-38, 2-(6-Chloro-1-methyl-1H-indazol-3-yl)-5H-pyrrolo[2,3-b]pyrazine-7-carboxylic acid (3-methanesulfonylamino-cyclopentyl)-amide]	9.01	15.9
COC[C@H](C)NC(=O)c1c[nH]c2ncc(-c3nc(Cl)n4cc(F)ccc34)nc12 [Example I-39, 2-(3-Chloro-6-fluoro-imidazo[1,5-a]pyridin-1-yl)-5H-pyrrolo[2,3-b]pyrazine-7-carboxylic acid ((S)-2-methoxy-1-methyl-ethyl)-amide]	5.81	243
COC[C@H](C)NC(=O)c1c[nH]c2ncc(-c3ncn4cc(F)cc(F)c34)nc12 [Example I-40, 2-(6,8-Difluoro-imidazo[1,5-a]pyridin-1-yl)-5H-pyrrolo[2,3-b]pyradine-7-carboxylic acid ((S)-2-methoxy-1-methyl-ethyl)-amide]	10.2	994
COC[C@H](C)NC(=O)c1c[nH]c2ncc(-c3nn(Cc4cccnc4)c4cc(Cl)ccc34)nc12 [Example I-235, 2-(6-Chloro-1-pyridin-3-ylmethyl-1H-indazol-3-yl)-5H-pyrrolo[2,3-b]pyrazine-7-carboxylic acid ((S)-2-methoxy-1-methyl-ethyl)-amide]	0.49	–
COC[C@H](C)NC(=O)c1c[nH]c2ncc(-c3nn(CCN4CCOCC4)c4cc(Cl)ccc34)nc12 [Example I-236, 2-[6-Chloro-1-(2-morpholin-4-yl-ethyl)-1H-indazol-3-yl]-5H-pyrrolo[2,3-b]pyrazine-7-carboxylic acid ((S)-2-methoxy-1-methyl-ethyl)-amide]	0.805	–
COC[C@H](C)NC(=O)c1c[nH]c2ncc(-c3nn(CCN(C)C)c4cc(F)ccc34)nc12 [Example I-239, 2-[1-(2-Dimethylamino-ethyl)-6-fluoro-1H-indazol-3-yl]-5H-pyrrolo[2,3-b]pyrazine-7-carboxylic acid ((S)-2-methoxy-1-methyl-ethyl)-amide]	1.83	–
COC[C@H](C)NC(=O)c1c[nH]c2ncc(-c3nn(Cc4ccccn4)c4cc(F)ccc34)nc12 [Example I-240, 2-(6-Fluoro-1-pyridin-2-ylmethyl-1H-indazol-3-yl)-5H-pyrrolo[2,3-b]pyrazine-7-carboxylic acid ((S)-2-methoxy-1-methyl-ethyl)-amide]	0.615	–
Cn1nc(-c2cnc3[nH]cc(C(=O)NC(C)(C)C)c3n2)c2cc(OC(F)F)ccc21 [Example I-284, 2-(5-Difluoromethoxy-1-methyl-1H-indazol-3-yl)-5H-pyrrolo[2,3-b]pyrazine-7-carboxylic acid tert-butylamide]	71.2	–
Cn1nc(-c2cnc3[nH]cc(C(=O)NC(C)(C)C)c3n2)c2ccc(Cl)cc21 [Example I-305, 2-(6-Chloro-1-methyl-1H-indazol-3-yl)-5H-pyrrolo[2,3-b]pyrazine-7-carboxylic acid tert-butylamide]	444	–
CC(C)NC(=O)c1c[nH]c2ncc(-c3nn(CC4CC4)c4cc(Cl)ccc34)nc12 [Example I-309, 2-(6-Chloro-1-cyclopropylmethyl-1H-indazol-3-yl)-5H-pyrrolo[2,3-b]pyrazine-7-carboxylic acid isopropylamide]	28.6	–

Next, values leading:

IC50 [1] [nM]	IC50 [2] [nM]	Structure (SMILES)
2.86	10.3	Cn1nc(-c2cnc3[nH]cc(C(=O)N[C@H]4CC[C@@H](O)C4)c3n2)c2ccc(F)cc21 (relative stereo) [Example I-46, 2-(6-Fluoro-1-methyl-1H-indazol-3-yl)-5H-pyrrolo[2,3-b]pyrazine-7-carboxylic acid (cis-3-hydroxy-cyclopentyl)-amide]
5.31	21.9	Cn1nc(-c2cnc3[nH]cc(C(=O)N[C@H]4CC[C@H](O)C4)c3n2)c2ccc(F)cc21 (relative stereo) [Example I-47, 2-(6-Fluoro-1-methyl-1H-indazol-3-yl)-5H-pyrrolo[2,3-b]pyrazine-7-carboxylic acid (trans-3-hydroxy-cyclopentyl)-amide]
10.6	44.4	Cn1nc(-c2cnc3[nH]cc(C(=O)N[C@H]4CC[C@@H](CC#N)C4)c3n2)c2ccc(F)cc21 (relative stereo) [Example I-57, 2-(6-Fluoro-1-methyl-1H-indazol-3-yl)-5H-pyrrolo[2,3-b]pyrazine-7-carboxylic acid (cis-3-cyanomethyl-cyclopentyl)-amide]
10.3	52	Cn1nc(-c2cnc3[nH]cc(C(=O)N[C@@H]4CCC[C@H](O)C4)c3n2)c2ccc(Cl)cc21 (relative stereo) [Example I-149, 2-(6-Chloro-1-methyl-1H-indazol-3-yl)-5H-pyrrolo[2,3-b]pyrazine-7-carboxylic acid (cis-3-hydroxy-cyclohexyl)-amide]
10.5	7.57	C[C@H](O)[C@H](C)NC(=O)c1c[nH]c2ncc(-c3nn(C)c4cc(Cl)ccc34)nc12 (relative stereo) [Example I-201, 2-(6-Chloro-1-methyl-1H-indazol-3-yl)-5H-pyrrolo[2,3-b]pyrazine-7-carboxylic acid (trans-2-hydroxy-1-methyl-propyl)-amide]
263	197	CC(NC(=O)c1c[nH]c2ncc(-c3nn(C)c4cc(F)ccc34)nc12)C(O)C1CCOCC1 (single isomer, unassigned) [Example I-203, 2-(6-Fluoro-1-methyl-1H-indazol-3-yl)-5H-pyrrolo[2,3-b]pyrazine-7-carboxylic acid [cis-2-hydroxy-1-methyl-2-(tetrahydro-pyran-4-yl)-ethyl]-amide]
217	205	CC(NC(=O)c1c[nH]c2ncc(-c3nn(C)c4cc(F)ccc34)nc12)C(O)C1CCOCC1 (single isomer, unassigned) [Example I-204, 2-(6-Fluoro-1-methyl-1H-indazol-3-yl)-5H-pyrrolo[2,3-b]pyrazine-7-carboxylic acid [trans-2-hydroxy-1-methyl-2-(tetrahydro-pyran-4-yl)-ethyl]-amide]
13.9	16	C[C@@H](NC(=O)c1c[nH]c2ncc(-c3nn(C)c4cc(F)ccc34)nc12)C(C)(C)F [Example I-44, 2-(6-Fluoro-1-methyl-1H-indazol-3-yl)-5H-pyrrolo[2,3-b]pyrazine-7-carboxylic acid ((R)-2-fluoro-1,2-dimethyl-propyl)-amide]
0.815	–	COC[C@H](C)NC(=O)c1c[nH]c2ncc(-c3nn(CCN4CCOCC4)c4cc(F)ccc34)nc12 [Example I-238, 2-[6-Fluoro-1-(2-morpholin-4-yl-ethyl)-1H-indazol-3-yl]-5H-pyrrolo[2,3-b]pyrazine-7-carboxylic acid ((S)-2-methoxy-1-methyl-ethyl)-amide]
> 1000	–	Cn1nc(-c2cnc3[nH]cc(C(=O)NC(C)(C)CO)c3n2)c2ccc(F)cc21 [Example I-363, 2-(6-Fluoro-1-methyl-1H-indazol-3-yl)-5H-pyrrolo[2,3-b]pyrazine-7-carboxylic acid (2-hydroxy-1,1-dimethyl-ethyl)-amide]
